According to ChEMBL document CHEMBL1201862, “PubChem BioAssay data set” (2004):
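How tested: cells in 96-well plates exposed to compound for 48 hours at five concentrations. Here, GI50 denotes the concentration required for 50% inhibition of growth.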 Activity calls are given as the source filed them. Rule as the data show it: active = GI50 up to about 1.1 µM and inactive = higher.

Assays:
Assay in all cases: NCI tumour cell line growth inhibition, 48 h
NCI-H226 = tested on: NCI-H226
OVCAR-5 = tested on: OVCAR-5
NCI-H23 = tested on: NCI-H23
UACC-257 = tested on: UACC-257
HCC 2998 = tested on: HCC 2998
DMS-273 = tested on: DMS-273
SN12C = tested on: SN12C
TK-10 = tested on: TK-10
SK-MEL-2 = tested on: SK-MEL-2
NCI-H460 = tested on: NCI-H460
SW-620 = tested on: SW-620
SF-268 = tested on: SF-268
NCI-H522 = tested on: NCI-H522
CCRF-CEM = tested on: CCRF-CEM
HCT-116 = tested on: HCT-116
OVCAR-8 = tested on: OVCAR-8
Malme-3M = tested on: Malme-3M
RXF 631 = tested on: RXF 631
IGROV-1 = tested on: IGROV-1
HOP-18 = tested on: HOP-18
KM12 = tested on: KM12
A498 = tested on: A498
HOP-62 = tested on: HOP-62
SK-MEL-28 = tested on: SK-MEL-28
XF498 = tested on: XF498
SNB-19 = tested on: SNB-19
SR = tested on: SR
M19-MEL = tested on: M19-MEL
SF-295 = tested on: SF-295
OVCAR-3 = tested on: OVCAR-3
CAKI-1 = tested on: CAKI-1
RXF 393 = tested on: RXF 393
HOP-92 = tested on: HOP-92
786-0 = tested on: 786-0
MOLT-4 = tested on: MOLT-4
U-251 = tested on: U-251
SF-539 = tested on: SF-539
EKVX = tested on: EKVX
KM-20L2 = tested on: KM-20L2
LOX IMVI = tested on: LOX IMVI
ACHN = tested on: ACHN
HL-60 = tested on: HL-60
HT-29 = tested on: HT-29
OVCAR-4 = tested on: OVCAR-4
SNB-78 = tested on: SNB-78
K562 = tested on: K562
A549 = tested on: A549
COLO 205 = tested on: COLO 205
SK-OV-3 = tested on: SK-OV-3
DLD-1 = tested on: DLD-1
LXFL 529 = tested on: LXFL 529
UACC-62 = tested on: UACC-62
RPMI-8226 = tested on: RPMI-8226
HCT-15 = tested on: HCT-15
SNB-75 = tested on: SNB-75
DMS-114 = tested on: DMS-114
SK-MEL-5 = tested on: SK-MEL-5
M14 = tested on: M14
UO-31 = tested on: UO-31

Which GI50 (NCI-H226) does the source give for `COC(=O)c1c[nH]cc1CCCCc1c[nH]cc1C(=O)OC` here?
The GI50 was > 100 µM (inactive).

What about the GI50 (OVCAR-5) of the same compound?
Its GI50 is > 100 µM (inactive).

What about the GI50 (NCI-H23) of the same compound?
Its GI50 is > 100 µM (inactive).

What about the GI50 (UACC-257) of the same compound?
The GI50 was > 100 µM (inactive).

What about the GI50 (HCC 2998) of the same compound?
The GI50 was > 100 µM (inactive).

And the GI50 (DMS-273)?
Its GI50 is > 100 µM (inactive).

What about the GI50 (SN12C) of the same compound?
The GI50 was > 100 µM (inactive).

What about the GI50 (TK-10) of the same compound?
Its GI50 is > 100 µM (inactive).

What about the GI50 (SK-MEL-2) of the same compound?
The GI50 was > 100 µM (inactive).

What about the GI50 (NCI-H460) of the same compound?
Its GI50 is > 100 µM (inactive).

What about the GI50 (SW-620) of the same compound?
The GI50 was > 100 µM (inactive).

What about the GI50 (SF-268) of the same compound?
Its GI50 is > 100 µM (inactive).

And the GI50 (NCI-H522)?
The GI50 was > 100 µM (inactive).

What about the GI50 (CCRF-CEM) of the same compound?
The GI50 was > 100 µM (inactive).

What about the GI50 (HCT-116) of the same compound?
The GI50 was > 100 µM (inactive).

And the GI50 (OVCAR-8)?
The GI50 was > 100 µM (inactive).

And the GI50 (Malme-3M)?
The GI50 was > 100 µM (inactive).

And the GI50 (RXF 631)?
The GI50 was > 100 µM (inactive).

And the GI50 (IGROV-1)?
The GI50 was > 100 µM (inactive).

What about the GI50 (HOP-18) of the same compound?
Its GI50 is > 100 µM (inactive).

And the GI50 (KM12)?
The GI50 was > 100 µM (inactive).

And the GI50 (A498)?
The GI50 was > 100 µM (inactive).

And the GI50 (HOP-62)?
Its GI50 is > 100 µM (inactive).

And the GI50 (SK-MEL-28)?
The GI50 was > 100 µM (inactive).

What about the GI50 (XF498) of the same compound?
The GI50 was 50 µM (inactive).

What about the GI50 (SNB-19) of the same compound?
Its GI50 is > 100 µM (inactive).

And the GI50 (SR)?
Its GI50 is > 100 µM (inactive).

And the GI50 (M19-MEL)?
The GI50 was > 100 µM (inactive).

What about the GI50 (SF-295) of the same compound?
The GI50 was 73.3 µM (inactive).

What about the GI50 (OVCAR-3) of the same compound?
Its GI50 is > 100 µM (inactive).

And the GI50 (CAKI-1)?
Its GI50 is > 100 µM (inactive).

And the GI50 (RXF 393)?
Its GI50 is > 100 µM (inactive).

And the GI50 (HOP-92)?
The GI50 was 58.6 µM (inactive).

What about the GI50 (786-0) of the same compound?
Its GI50 is 89.1 µM (inactive).

What about the GI50 (MOLT-4) of the same compound?
The GI50 was > 100 µM (inactive).

What about the GI50 (U-251) of the same compound?
The GI50 was > 100 µM (inactive).

What about the GI50 (SF-539) of the same compound?
Its GI50 is > 100 µM (inactive).

What about the GI50 (EKVX) of the same compound?
Its GI50 is > 100 µM (inactive).

And the GI50 (KM-20L2)?
The GI50 was > 100 µM (inactive).

What about the GI50 (LOX IMVI) of the same compound?
The GI50 was > 100 µM (inactive).

And the GI50 (ACHN)?
The GI50 was > 100 µM (inactive).

What about the GI50 (HL-60) of the same compound?
Its GI50 is 73.3 µM (inactive).

And the GI50 (HT-29)?
Its GI50 is > 100 µM (inactive).

What about the GI50 (OVCAR-4) of the same compound?
The GI50 was > 100 µM (inactive).

And the GI50 (SNB-78)?
The GI50 was > 100 µM (inactive).

What about the GI50 (K562) of the same compound?
Its GI50 is > 100 µM (inactive).

What about the GI50 (A549) of the same compound?
Its GI50 is > 100 µM (inactive).

And the GI50 (COLO 205)?
Its GI50 is > 100 µM (inactive).

And the GI50 (SK-OV-3)?
Its GI50 is > 100 µM (inactive).

Which GI50 (NCI-H226) does the source give for `Nc1ccc(N)c2c1C(=O)c1ccccc1C2=O` here?
The GI50 was > 100 µM (inactive).

And the GI50 (OVCAR-5)?
Its GI50 is > 100 µM (inactive).

And the GI50 (NCI-H23)?
Its GI50 is 17.7 µM (inactive).

What about the GI50 (UACC-257) of the same compound?
Its GI50 is > 100 µM (inactive).

And the GI50 (DLD-1)?
Its GI50 is 5.83 µM (inactive).

What about the GI50 (HCC 2998) of the same compound?
Its GI50 is 3.97 µM (inactive).

And the GI50 (DMS-273)?
The GI50 was 16 µM (inactive).

What about the GI50 (SN12C) of the same compound?
Its GI50 is 13.2 µM (inactive).

And the GI50 (TK-10)?
The GI50 was 4.08 µM (inactive).

And the GI50 (SK-MEL-2)?
The GI50 was 79.1 µM (inactive).

What about the GI50 (NCI-H460) of the same compound?
The GI50 was 9.51 µM (inactive).

What about the GI50 (SW-620) of the same compound?
Its GI50 is 32.7 µM (inactive).

And the GI50 (SF-268)?
The GI50 was 51.3 µM (inactive).

And the GI50 (NCI-H522)?
The GI50 was 9.48 µM (inactive).

And the GI50 (CCRF-CEM)?
The GI50 was 32.1 µM (inactive).

What about the GI50 (HCT-116) of the same compound?
The GI50 was 11.1 µM (inactive).

And the GI50 (OVCAR-8)?
Its GI50 is 76.2 µM (inactive).

What about the GI50 (Malme-3M) of the same compound?
Its GI50 is 24 µM (inactive).

And the GI50 (RXF 631)?
The GI50 was 20.4 µM (inactive).

What about the GI50 (IGROV-1) of the same compound?
Its GI50 is 6.44 µM (inactive).

And the GI50 (HOP-18)?
Its GI50 is 22 µM (inactive).

And the GI50 (LXFL 529)?
Its GI50 is 31.1 µM (inactive).

And the GI50 (UACC-62)?
The GI50 was 15.7 µM (inactive).

What about the GI50 (KM12) of the same compound?
Its GI50 is 4.54 µM (inactive).

What about the GI50 (RPMI-8226) of the same compound?
The GI50 was 9.16 µM (inactive).

And the GI50 (HCT-15)?
Its GI50 is 4.41 µM.

And the GI50 (A498)?
The GI50 was 7.35 µM (inactive).

What about the GI50 (HOP-62) of the same compound?
Its GI50 is 5.01 µM (inactive).

What about the GI50 (SK-MEL-28) of the same compound?
Its GI50 is > 100 µM (inactive).

And the GI50 (XF498)?
The GI50 was > 100 µM (inactive).

And the GI50 (SNB-19)?
The GI50 was > 100 µM (inactive).

What about the GI50 (M19-MEL) of the same compound?
Its GI50 is 95.5 µM (inactive).

And the GI50 (OVCAR-3)?
The GI50 was 43.9 µM (inactive).

What about the GI50 (SNB-75) of the same compound?
Its GI50 is > 100 µM (inactive).

What about the GI50 (CAKI-1) of the same compound?
Its GI50 is 4.57 µM (inactive).

What about the GI50 (HOP-92) of the same compound?
Its GI50 is 36.2 µM (inactive).

And the GI50 (786-0)?
Its GI50 is 78.7 µM (inactive).

What about the GI50 (MOLT-4) of the same compound?
The GI50 was 13.4 µM (inactive).

What about the GI50 (DMS-114) of the same compound?
Its GI50 is 32.7 µM (inactive).

What about the GI50 (U-251) of the same compound?
The GI50 was 17.3 µM (inactive).

And the GI50 (SF-539)?
Its GI50 is 34.4 µM (inactive).

And the GI50 (EKVX)?
The GI50 was 87.5 µM (inactive).

What about the GI50 (KM-20L2) of the same compound?
Its GI50 is 14.4 µM (inactive).

What about the GI50 (LOX IMVI) of the same compound?
Its GI50 is 9.02 µM (inactive).

And the GI50 (ACHN)?
Its GI50 is 4.66 µM (inactive).

And the GI50 (HT-29)?
The GI50 was 57.9 µM (inactive).

What about the GI50 (OVCAR-4) of the same compound?
Its GI50 is > 100 µM (inactive).

What about the GI50 (SNB-78) of the same compound?
The GI50 was > 100 µM (inactive).

And the GI50 (SK-MEL-5)?
The GI50 was 15.8 µM (inactive).

And the GI50 (M14)?
Its GI50 is 17.7 µM (inactive).

What about the GI50 (K562) of the same compound?
The GI50 was 27.6 µM (inactive).

What about the GI50 (A549) of the same compound?
Its GI50 is 24.4 µM (inactive).

What about the GI50 (UO-31) of the same compound?
Its GI50 is 12.4 µM (inactive).

What about the GI50 (COLO 205) of the same compound?
The GI50 was 17.8 µM (inactive).

What about the GI50 (SK-OV-3) of the same compound?
The GI50 was 2.49 µM (inactive).
